Measurements as given in patent US20230210834A1, “RNA METHYLTRANSFERASE INHIBITOR, SCREENING METHOD THEREFOR, ANTI-CANCER AGENT EFFICACY ASSESSMENT MARKER, AND KIT FOR EFFECTIVELY PREDICTING FTSJ1 INHIBITOR” (National University Corporation Okayama University, priority 2019, published 2023).

Key:
[1] = tested on: polyglutamine luciferase reporter; assay: Screening: polyglutamine luciferase reporter assay in NUGC3 cells (luminescence % of DMSO); assay type: cell-based, human; settings: NUGC3 cells, luminescence relative to DMSO; for Polyglutamine: concentration not given
YAP/TAZ = assay: Screening: YAP/TAZ activity reporter (8xGTIIC plasmid) assay in NUGC3 cells (luminescence % of DMSO); assay type: cell-based, human; settings: NUGC3 cells, luminescence relative to DMSO; for 8×GTIIC: concentration not given
[2] = tested on: triple-negative breast cancer cell line MDA-MB-231; assay: Anti-tumor effect evaluation test in MDA-MB-231 tumor model mice; assay type: in vivo, immunodeficient mice (BALB/c-nu/nu); settings: 100 mg/kg intraperitoneally every other day in corn oil; FIG. 1 and 2
Description: A cell suspension (1×10^6 cells/100 μL), in which triple-negative breast cancer cell line MDA-MB-231 was suspended in phosphate buffer (PBS, produced by FUJIFILM Wako Pure Chemical Corporation), was inoculated subcutaneously in the dorsal lumbar region of immunodeficient mice (BALB/c-nu/nu, female, 6 weeks old, purchased from Shimizu Laboratory Supplies Co., Ltd.) using a syringe with a 23 G injection needle (Terumo Corporation). After confirming that the cancer cells engrafted under the skin of the mice to form tumor tissues, and that the tumor volume reached 100 mm^3, the obtained tumor model mice were used for the following evaluation test. First, each compound for evaluation was dissolved in corn oil (produced by Sigma-Aldrich Co., LLC) and administered intraperitoneally. PVZF0024 was administered at 100 mg/kg and PVZF2001 was administered at 20 mg/kg to the tumor model mice every other day. At each administration, the tumor diameter was measured with a caliper. The tumor volume was calculated according to the following formula: V=(3.14×D×d^2)/6 (wherein V is the tumor volume, D is the tumor major axis, and d is the tumor minor axis) (Wu. et al., Clin. Cancer Res., 2013 Oct. 15; 19(20): 5699-5710).

[3] = polyglutamine luciferase reporter
[4] = YAP/TAZ activity reporter (8×GTIIC)

| Compound | Polyglutamine [1, 3] | 8×GTIIC (YAP/TAZ; [4]) | also measured |
| --- | --- | --- | --- |
| CC(=O)c1cccc(C2CC(c3ccc(C)cc3)=NC2S(=O)(=O)c2ccccc2)c1 (stereo not drawn) [PVZF0093] | – | – | Polyglutamine [1]: 45.45%; 8×GTIIC (YAP/TAZ): 59.77% |
| CC(=O)C1C=C(c2ccccc2)CC1c1ccc2ccccc2c1 (stereo not drawn) [PZ179] | 66.51% | 95.65% | – |
| Cc1ccc(S(=O)(=O)CC2CCC(C3CC3)CC2)cc1C (stereo not drawn) [SA042] | 94.62% | 100.9% | – |
| Oc1ccccc1C1CC(c2ccc3c(c2)OCCO3)=NN1 (stereo not drawn) [PVZF0024] | – | – | antitumor effect (tumor growth, tumor volume) [2]: significantly inhibit tumor growth; Polyglutamine [1]: 15.8%; 8×GTIIC (YAP/TAZ): 23.4% |
| CCS(=O)(=O)C1CCC(CS(=O)(=O)c2cc(C(C)C)cc(C)c2C)CC1 (stereo not drawn) [SA077] | 65.09% | 66.59% | – |
| Cc1ccc(S(=O)(=O)CC2CCC(C3CC3)CC2)c(C)c1 (stereo not drawn) [SA050] | 60.42% | 92.26% | – |
| CCc1ccc(CC)c(S(=O)(=O)CC2CCC(S(C)(=O)=O)CC2)c1 (stereo not drawn) [SA095] | 44.97% | 67.3% | – |
| CC(C)c1cc(C(C)C)c(S(=O)(=O)CC2CCCC2)c(C(C)C)c1 [PVZF2002] | 36.92% | 38.2% | – |
| Cc1ccccc1C1=CC(C2=CC3CCCCC3C=C2)=CC1 (stereo not drawn) [PVZF0101] | – | – | activity at 5 µM ([1]; Homo sapiens, NUGC-3, 5 μM): 13%; activity at 10 µM ([1]; Homo sapiens, NUGC-3, 10 μM): 10%; activity at 5 µM (YAP/TAZ; Homo sapiens, NUGC-3, 5 μM, read-out: 8×GTIIC): 16.1%; activity at 10 µM (YAP/TAZ; Homo sapiens, NUGC-3, 10 μM, read-out: 8×GTIIC): 12.5% |
| CC(=O)C1CC(c2ccc(C)cc2)CC1c1ccc2ccccc2c1 (stereo not drawn) [PZ177] | 43.89% | 71.59% | – |
| CC(C)c1cc(C(C)C)c(S(=O)(=O)CCc2ccccc2)c(C(C)C)c1 [PVZF2006] | 41.3% | 58.43% | – |
| CS(=O)(=O)C1CCC(CS(=O)(=O)c2ccc3c(c2)CCCC3)CC1 (stereo not drawn) [SA065] | 47.58% | 39.43% | – |
| CCc1cccc(C2CC(c3ccc(C)cc3)=NC2S(=O)(=O)c2ccccc2)c1CC (stereo not drawn) [PVZF0056] | – | – | Polyglutamine [1]: 48.33%; 8×GTIIC (YAP/TAZ): 53.76% |
| CC(=O)C1CC(c2cccc(C)c2)CC1c1ccccc1 (stereo not drawn) [PZ163] | 71.16% | 103.2% | – |
| CC1(C)CC(CS(=O)(=O)c2ccc(-c3ccccc3)cc2)CC(C)(C)C1 [PVZF2036] | 79.76% | 70.46% | – |
| Cc1c(C)c(C)c(S(=O)(=O)CC2CCC(C3CC3)CC2)c(C)c1C (stereo not drawn) [SA037] | 42.93% | 35.53% | – |
| O=S(=O)(CCC1CCCCC1)c1ccccc1 [PVZF2051] | 38.06% | 35.1% | – |

| Compound | Polyglutamine [1, 3] | 8×GTIIC (YAP/TAZ; [4]) | also measured |
| --- | --- | --- | --- |
| CC(C)(C)Cc1ccccc1S(=O)(=O)CC1CCC(C2CC2)CC1 (stereo not drawn) [SA089] | 56.61% | 50.1% | – |
| CS(=O)(=O)C1CCC(CS(=O)(=O)c2ccc3c(c2)CCCCC3)CC1 (stereo not drawn) [SA061] | 66.4% | 96.27% | – |
| O=C(CCCCc1ccccc1)C1CCC(CS(=O)(=O)c2ccccc2)CC1 (stereo not drawn) [SA012] | 86.48% | 91.92% | – |
| Cc1ccc(S(=O)(=O)CC2CCC(C3CC3)CC2)cc1 (stereo not drawn) [SA067] | 75.3% | 75.49% | – |
| CC(C)(C)c1ccc(S(=O)(=O)CCC2CCCCC2)cc1 [PVZF2024] | 63.4% | 55.45% | – |
| O=S(=O)(CCc1ccccc1)c1ccccc1 [PVZF2050] | 49.43% | 39.57% | – |
| CC(=O)c1ccccc1S(=O)(=O)CC1CCC(S(C)(=O)=O)CC1 (stereo not drawn) [SA074] | 92.5% | 88.44% | – |
| CCC(C)(C)c1ccc(S(=O)(=O)CC2CCCC2)cc1 [PVZF2037] | 51.06% | 43.28% | – |
| CCc1cccc(C2CC(c3ccccc3)=NC2S(=O)(=O)c2ccccc2C)c1CC (stereo not drawn) [PVZF0050] | – | – | Polyglutamine [1]: 58.65%; 8×GTIIC (YAP/TAZ): 106.2% |
| Cc1ccc(C)c(S(=O)(=O)CC2CCC(C3CC3)CC2)c1 (stereo not drawn) [SA052] | 47.69% | 54.65% | – |
| O=S(=O)(CC1CCC(S(=O)(=O)C2CCCCC2)CC1)c1ccccc1 (stereo not drawn) [SA071] | 61.72% | 138.5% | – |
| CC(C)(C)c1ccc(S(=O)(=O)CC2CCCC2)cc1 [PVZF2019] | 31.45% | 36.82% | – |
| CC(C)(C)c1ccc(S(=O)(=O)CCc2ccccc2)cc1 [PVZF2023] | 58.32% | 66.96% | – |
| O=S(=O)(CC1CCC(C2CC2)CC1)c1ccc2c(c1)CCC2 (stereo not drawn) [SA091] | 88.36% | 101.3% | – |
| O=S(=O)(CC1CCC(C2CC2)CC1)c1ccc2c(c1)CCCC2 (stereo not drawn) [SA031] | 62.23% | 76.14% | – |
| CCc1cc(OC)cc(C2=NC(S(=O)(=O)c3ccccc3)C(c3cccc(CC)c3CC)C2)c1 (stereo not drawn) [PVZF0053] | – | – | Polyglutamine [1]: 68.68%; 8×GTIIC (YAP/TAZ): 58.96% |
